What was measured:
albumin [1] = experiment: intravitreal Ang II-induced retinal albumin leakage; assay type: in vivo, mice; conditions: for intravitreal Ang II-induced retinal albumin leakage: EET 15 μg/kg/day s.c., Ang II intravitreal on day 3, leakage significant only with 11,12-EET
Experimental: B6 Mice were injected mice with Ang II (1 or 5 μg per eye) or vehicle assayed for albumin leakage. The expression of albumin was used as the index of leakage assay. Mice were treated with 11, 12-EET (15 μg/kg/day, s.c.; Alzet: Cayman), 14,15-EET (15 μg/kg/day, s.c.; Alzet; Cayman), or vehicle. 11,12-EET and 14,15-EET were used because they are the major products of cytochrome P450 (CYP) epoxygenases. On day 3 after treatment, mice were intravitreally injected with Ang II (5 μg/μl).

albumin [2] = experiment: intravitreal hVEGF-induced retinal albumin leakage; assay type: in vivo; conditions: 11,12-EET 15 μg/kg/day s.c. one week; sEH KO vs sEH (+/+) mice
Experimental: sEH (−/−) and sEH (+/+) mice were treated with 11, 12-EET (15 μg/kg/day, s.c.; Alzet) or a vehicle for one week, then injected with hVEGF.

albumin [3] = experiment: intravitreal Ang II-induced retinal albumin leakage in diabetic mice; assay type: in vivo; conditions: for intravitreal Ang II-induced retinal albumin leakage in diabetic mice: 11,12-EET 15 μg/kg/day s.c., MS-PPOH 20 mg/kg/day i.p.
Experimental: (§1) One week after mice developed diabetes, diabetic and control mice were assigned to the following groups: Ang II (intravitreal injection with 5 μg/1 μL of Ang II); diabetes+Ang II; diabetes+Ang II+11,12-EET (15 μg/kg/day, s.c.; Alzet); diabetes+Ang II+MS-PPOH (CAS No. 206052-02-0-(N-methylsulfonyl-6-(2-propargyloxyphenyl)hexanamide, a selective EETs blocker; 20 mg/kg/day, i.p); and control. 11,12-EET was used because it potentiates intravitreal Ang II-induced retinal damage (FIGS. 4A-4C); also, MS-PPOH was used in a previous study (Huang, H., Exp Biol Med (Maywood), 231:1744-1752 (2006)).

[4] = blood glucose levels in diabetic mice; assay type: in vivo; conditions: diabetic mice + Ang II; vs. 483±122 without treatment; not affected
Experimental: as §1

GLUT-1 = GLUT-1 expression in HRECs under HG and hypoxia; assay type: cell-based, human; conditions: HG (25 mM D-Glucose) + CO (CoCl2 hypoxia)
Experimental: (§2) The expression of albumin, ICAM-1, IL-6, GADPH, GLUT-1, and sEH was analyzed by homogenization of tissues or cells. Samples from mice in different treatments as well as human retinal endothelial cells (HRECs) were separated by electrophoresis for 3 h. The proteins were transferred to an enhanced chemiluminescence (ECL) membrane in a transfer buffer. The membranes were blocked for 90 min with 5% nonfat dry milk in Tris-buffered saline. The membranes were incubated with antibody against albumin (1:5000; Bethyl), ICAM-1 (1:2000; Cell Signaling), IL-6 (1:2000; Santa Cruz), GADPH (1:2000; abeam), GLUT-1 (1:10,000; abeam), or sEH (1:500; Santa. Cruz). The membranes were incubated with secondary antibody for albumin, ICAM-1, IL-6, GADPH, GLUT-1, or sEH. Chemiluminescent detection using ECL reagent from Millipore Corporation was done on X-ray film. In addition, quantification of the expression levels of these proteins was analyzed with NIH image J software.
Methods and Materials HRECs were subjected to L-glucose (osmotic control), L-Glu+hypoxia (CoCl2, 5 μM; CO), HG (25 mM of D-Glucose), or HG+CO.

[5] = EUCLID trial, 530 participants, after two years of treatment; cited from earlier work
[6] = DIRECT trial, oral treatment; cited from earlier work
sEH = experiment: Western blot of sEH protein in tissues of Ang II-infused mice; assay type: in vivo
Experimental: as §2, with “Eight-week-old male B6 mice were treated for 4 weeks with Ang II (3 mg/kg/day, s.c.; […]; Cayman), Ang II (Sigma), or vehicle. […]. The expression” for “The expression”
Male mice were treated for 4 weeks with Ang II (3 mg/kg/day, s.c.; Alzet)+telmisartan, a selective AT1 antagonist (2.5 mg/kg/day in drinking water; Cayman), Ang II, or vehicle.
as §2, with “abcam),” for “abeam),”, “Santa” for “Santa.”

[7] = blood pressure in Ang II-induced hypertension; assay type: in vivo, mice; conditions: Ang II 3 mg/kg/day s.c., 4 weeks, vs vehicle
albumin [8] = experiment: Western blot of total retinal albumin in Ang II-infused mice (retinal permeability); assay type: in vivo; conditions: Ang II 3 mg/kg/day s.c., 4 weeks, vs vehicle
Experimental: The expression of albumin, ICAM-1 IL-6, GADPH, GLUT-1, and sEH was analyzed by homogenization of tissues or cells. Samples from mice in different treatments as well as human retinal endothelial cells (HRECs) were separated by electrophoresis for 3 h. The proteins were transferred to an enhanced chemiluminescence (ECL) membrane in a transfer buffer. The membranes were blocked for 90 min with 5% nonfat dry milk in Tris-buffered saline. The membranes were incubated with antibody against albumin (1:5000; Bethyl), ICAM-1 (1:2000; Cell Signaling), IL-6 (1:2000; Santa Cruz), GADPH (1:2000; abcam), GLUT-1 (1:10,000; abcam), or sEH (1:500; Santa Cruz). The membranes were incubated with secondary antibody for albumin, ICAM-1, IL-6, GADPH, GLUT-1, or sEH. Chemiluminescent detection using ECL reagent from Millipore Corporation was done on X-ray film. In addition, quantification of the expression levels of these proteins was analyzed with NIH image J software.

CCCCC/C=C\C[C@H]1O[C@H]1C/C=C\C/C=C\CCCC(=O)O [11,12-EET]
intravitreal Ang II-induced retinal albumin leakage (albumin [1]): promoted
potency in potentiating intravitreal Ang II-induced retinal damage (albumin [1]; comparison of the two EETs): more potent than 14,15-EET
effects of 11,12-EET on intravitreal hVEGF-induced retinal vascular leakage (albumin [2]): potentiated
intravitreal Ang II-induced retinal albumin leakage in diabetic mice (albumin [3]): increased
blood glucose levels [4]: 528 ± 53 mg/dL
GLUT-1 expression in HRECs (GLUT-1): promoted GLUT-1 expression

CCCCCC1OC1C/C=C\C/C=C\C/C=C\CCCC(=O)O (stereo not shown) [14,15-EET]
intravitreal Ang II-induced retinal albumin leakage (albumin [1]): promoted
GLUT-1 expression in HRECs (GLUT-1): promoted GLUT-1 expression

NCCCC[C@H](N[C@@H](CCc1ccccc1)C(=O)O)C(=O)N1CCC[C@H]1C(=O)O [Lisinopril]
reduction of progression of DR [5]: 50%
reduction of progression to proliferative DR [5]: 80%

C#CCOc1ccccc1CCCCCC(=O)NS(C)(=O)=O [MS-PPOH, N-methylsulfonyl-6-(2-propargyloxyphenyl)hexanamide]
intravitreal Ang II-induced retinal albumin leakage in diabetic mice (albumin [3]): decreased
blood glucose levels [4]: 502 ± 57 mg/dL

CCOc1nc2cccc(C(=O)O)c2n1Cc1ccc(-c2ccccc2-c2nnn[nH]2)cc1 [candesartan]
incidence of diabetic retinopathy [6]: decreased the incidence of diabetic retinopathy
progression of established diabetic retinopathy [6]: did not reduce the progression of established diabetic retinopathy

CCCc1nc2c(C)cc(-c3nc4ccccc4n3C)cc2n1Cc1ccc(-c2ccccc2C(=O)O)cc1 [telmisartan]
Ang II-induced sEH expression in the heart (sEH; heart, Ang II + telmisartan 2.5 mg/kg/day in drinking water, 4 weeks): attenuated
Ang II-induced sEH expression in the kidney (sEH; kidney, Ang II + telmisartan 2.5 mg/kg/day in drinking water, 4 weeks): attenuated
Ang II-induced retinal expression of sEH (sEH; retina, Ang II + telmisartan 2.5 mg/kg/day in drinking water, 4 weeks): reversed

Ang II: angiotensin II, produced from Ang I by angiotensin-converting enzyme (DRVYIHPF; Angiotensin-2; UniProt P01019 25-32, looked up)
blood pressure [7]: became hypertensive
retinal sEH protein levels, elevation vs vehicle group (sEH; retina, Ang II 3 mg/kg/day s.c., 4 weeks): 2 fold
retinal expression of sEH (sEH; retina, Ang II infusion 3 mg/kg/day s.c., 4 weeks (Example 4)): increased
total retinal albumin (albumin [8]): did not affect total retinal albumin
albumin leakage (blood retinal barrier disruption) in diabetes (albumin [3]; intravitreal Ang II 5 μg/1 μL, diabetic mice): significant increases in albumin leakage

Source: patent US11135187B2, “Compositions and methods for treating diabetic retinopathy” (Augusta University Research Institute, Inc., priority 2017, dated 2021)
